Assay results taken from US20250197420A1, “MACROCYCLIC COMPOUNDS, COMPOSITIONS, AND METHODS OF USING THEREOF” (Sionna Therapeutics Inc., priority 2022, published 2025).

What was measured:
[1] = system: Primary human bronchial epithelial cells from a ΔF508 homozygous CF donor (CF-HBE cells); test: TECC24 recording of CFTR-mediated transepithelial chloride transport, AUC fold over benchmark VX-809 @10 μM; assay type: cell-based; settings: 48 hours incubation, AUC of forskolin-stimulated IEQ
Method in brief: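 Values are the forskolin-to-inhibitor-172 AUC of equivalent Cl− current, derived from transepithelial voltage and resistance, divided by the VX-809 AUC and binned as A <3, B 3–6, C 6–20. Cells were pre-incubated with compound for 48 h at 36.5 °C; the bath (pH 7.4) received benzamil 10 μM, forskolin 10 μM, then CFTRinh-172 20 μM.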

[2] = target: T1, Purified recombinant NBD1 (Homo sapiens, UniProt P13569); test: Aggregation analysis using differential static light scattering (DSLS): thermal stability of NBD1; assay type: binding; settings: NBD1 0.2 mg/ml; Tagg of compound well minus average Tagg of DMSO control wells
T1 construct: Purified recombinant NBD1 was produced using previously described methods; made in house
Method in brief: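 ΔTagg is compound-well aggregation temperature minus the DMSO-control mean, each Tagg being the inflection point of light scattering measured by DSLS during a 1 °C/min ramp up to 70 °C. The protein was purified NBD1 (0.2 mg/ml) in pH 7.6 buffer containing 2 mM ATP, 5 mM MgCl2 and 1% glycerol.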

T1 sequence (P13569 423-646 limits assumed): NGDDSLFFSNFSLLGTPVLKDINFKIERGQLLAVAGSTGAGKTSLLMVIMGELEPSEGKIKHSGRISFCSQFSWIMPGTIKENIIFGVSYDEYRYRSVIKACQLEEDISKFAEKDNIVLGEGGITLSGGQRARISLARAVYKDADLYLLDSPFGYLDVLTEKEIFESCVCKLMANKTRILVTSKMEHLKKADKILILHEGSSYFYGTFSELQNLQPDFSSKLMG

SMILES	TECC (test agent AUC divided by VX-809 AUC) [1]	DSLS (ΔTagg) [2]
CC1(c2cccc(CCC(=O)O)c2)CCCC2(CC2)CNC(=O)CCc2c(c(F)c(F)c3[nH]ccc23)Oc2ccc(F)c(c2)-c2ncc1[nH]2 (single isomer, unassigned) [Compound 69B, 3-[3-(22,23,29-trifluoro-6-methyl-13-oxo-spiro[25-oxa-3,12,20,31-tetrazapentacyclo-[24.3.1.12,5.016,24.017,21]hentriaconta-1(30),2,4,16,18,21,23,26,28-nonaene-10,1′-cyclopropane]-6-yl)phenyl]propanoic acid]	B (a value between 3 and 6 is marked “B”)	A (an ΔTagg value less than or equal to 5 °C is marked “A”)
CN1CC(C)(C)CCCC(C)(c2cccc(CCC(=O)O)c2)c2cnc([nH]2)-c2cc(ccc2F)Oc2c(F)cc3[nH]cnc3c2CCC1=O (single isomer, unassigned) [Compound 72A, 3-[3-(23,29-difluoro-6,10,10,12-tetramethyl-13-oxo-25-oxa-3,12,18,20,31-pentazapentacyclo-[24.3.1.12,5.016,24.017,21]hentriaconta-1(30),2,4,16,18,21,23,26,28-nonaen-6-yl)phenyl]propanoic acid]	A (a TECC value less than 3 is marked “A”)	A (an ΔTagg value less than or equal to 5 °C is marked “A”)
CN1CC(C)(C)CCCC(C)(c2cccc(CCC(=O)O)c2)c2cnc([nH]2)-c2cc(ccc2F)Oc2c(F)cc3[nH]cnc3c2CCC1=O (single isomer, unassigned) [Compound 72B, 3-[3-(23,29-difluoro-6,10,10,12-tetramethyl-13-oxo-25-oxa-3,12,18,20,31-pentazapentacyclo-[24.3.1.12,5.016,24.017,21]hentriaconta-1(30),2,4,16,18,21,23,26,28-nonaen-6-yl)phenyl]propanoic acid]	A (a TECC value less than 3 is marked “A”)	B (a value above 5 °C and less than or equal to 10 °C is marked “B”)
CN1CC(C)(C)CCC(C)(c2cccc(CCC(=O)O)c2)c2nc(n(C)n2)-c2cc(ccc2F)Oc2c(F)cc3[nH]ccc3c2CCC1=O (single isomer, unassigned) [Compound 75A, 3-[3-(22,28-difluoro-3,6,9,9,11-pentamethyl-12-oxo-24-oxa-3,4,11,19,30-pentazapentacyclo[23.3.1.12,5.015,23.016,20]triaconta-1(29),2(30),4,15,17,20,22,25,27-nonaen-6-yl)phenyl]propanoic acid]	B (a value between 3 and 6 is marked “B”)	B (a value above 5 °C and less than or equal to 10 °C is marked “B”)
CN1CC(C)(C)CCC(C)(c2cccc(CCC(=O)O)c2)c2nc(n(C)n2)-c2cc(ccc2F)Oc2c(F)cc3[nH]ccc3c2CCC1=O (single isomer, unassigned) [Compound 75B, 3-[3-(22,28-difluoro-3,6,9,9,11-pentamethyl-12-oxo-24-oxa-3,4,11,19,30-pentazapentacyclo[23.3.1.12,5.015,23.016,20]triaconta-1(29),2(30),4,15,17,20,22,25,27-nonaen-6-yl)phenyl]propanoic acid]	A (a TECC value less than 3 is marked “A”)	A (an ΔTagg value less than or equal to 5 °C is marked “A”)
[2H]C([2H])([2H])n1nc2nc1-c1cc(ccc1F)Oc1c(F)cc3[nH]ccc3c1CCC(=O)NCC(C)(C)CCCC2(C)c1cccc(CCC(=O)O)c1 (single isomer, unassigned) [Compound 76A, 3-[3-[23,29-difluoro-6,10,10-trimethyl-13-oxo-3-(trideuteriomethyl)-25-oxa-3,4,12,20,31-pentazapentacyclo[24.3.1.12,5.016,24.017,21]hentriaconta-1(30),2(31),4,16,18,21,23,26,28-nonaen-6-yl]phenyl]propanoic acid]	A (a TECC value less than 3 is marked “A”)	A (an ΔTagg value less than or equal to 5 °C is marked “A”)
[2H]C([2H])([2H])n1nc2nc1-c1cc(ccc1F)Oc1c(F)cc3[nH]ccc3c1CCC(=O)NCC(C)(C)CCCC2(C)c1cccc(CCC(=O)O)c1 (single isomer, unassigned) [Compound 76B, 3-[3-[23,29-difluoro-6,10,10-trimethyl-13-oxo-3-(trideuteriomethyl)-25-oxa-3,4,12,20,31-pentazapentacyclo[24.3.1.12,5.016,24.017,21]hentriaconta-1(30),2(31),4,16,18,21,23,26,28-nonaen-6-yl]phenyl]propanoic acid]	C (a value between 6 and 20 is marked “C”)	C (a value greater than 10 °C and less than or equal to 25 °C is marked “C”)
[2H]C([2H])([2H])n1nc2nc1-c1cc(ccc1F)Oc1c(F)cc3[nH]ccc3c1CCC(=O)N(C)CC(C)(C)CCCC2(C)c1cccc(CCC(=O)O)c1 (single isomer, unassigned) [Compound 77A, 3-[3-[23,29-difluoro-6,10,10,12-tetramethyl-13-oxo-3-(trideuteriomethyl)-25-oxa-3,4,12,20,31-pentazapentacyclo[24.3.1.12,5.016,24.017,21]-hentriaconta-1(30),2(31),4,16,18,21,23,26,28-nonaen-6-yl]phenyl]propanoic acid]	C (a value between 6 and 20 is marked “C”)	C (a value greater than 10 °C and less than or equal to 25 °C is marked “C”)
[2H]C([2H])([2H])n1nc2nc1-c1cc(ccc1F)Oc1c(F)cc3[nH]ccc3c1CCC(=O)N(C)CC(C)(C)CCCC2(C)c1cccc(CCC(=O)O)c1 (single isomer, unassigned) [Compound 77B, 3-[3-[23,29-difluoro-6,10,10,12-tetramethyl-13-oxo-3-(trideuteriomethyl)-25-oxa-3,4,12,20,31-pentazapentacyclo[24.3.1.12,5.016,24.017,21]-hentriaconta-1(30),2(31),4,16,18,21,23,26,28-nonaen-6-yl]phenyl]propanoic acid]	A (a TECC value less than 3 is marked “A”)	A (an ΔTagg value less than or equal to 5 °C is marked “A”)
[2H]C([2H])([2H])n1nc2nc1-c1cc(ccc1F)Oc1c(F)cc3[nH]ccc3c1CCC(=O)N(C)CC(C)(C)CCCC2(C)c1cccc(CCC(=O)NS(C)(=O)=O)c1 (single isomer, unassigned) [Compound 79A, 3-[3-[23,29-difluoro-6,10,10,12-tetramethyl-13-oxo-3-(trideuteriomethyl)-25-oxa-3,4,12,20,31-pentazapentacyclo[24.3.1.12,5.016,24.017,21]hentriaconta-1(30),2(31),4,16,18,21,23,26,28-nonaen-6-yl]phenyl]-N-methylsulfonyl-propanamide]	A (a TECC value less than 3 is marked “A”)	A (an ΔTagg value less than or equal to 5 °C is marked “A”)
[2H]C([2H])([2H])n1nc2nc1-c1cc(ccc1F)Oc1c(F)cc3[nH]ccc3c1CCC(=O)N(C)CC(C)(C)CCCC2(C)c1cccc(CCC(=O)NS(C)(=O)=O)c1 (single isomer, unassigned) [Compound 79B, 3-[3-[23,29-difluoro-6,10,10,12-tetramethyl-13-oxo-3-(trideuteriomethyl)-25-oxa-3,4,12,20,31-pentazapentacyclo[24.3.1.12,5.016,24.017,21]hentriaconta-1(30),2(31),4,16,18,21,23,26,28-nonaen-6-yl]phenyl]-N-methylsulfonyl-propanamide]	C (a value between 6 and 20 is marked “C”)	C (a value greater than 10 °C and less than or equal to 25 °C is marked “C”)
CC1(C)CCCCC(C)(c2cccc(CCC(=O)O)c2)c2cnc([nH]2)-c2cc(ccc2F)Oc2c(F)cc3[nH]ccc3c2COC(=O)N1 (single isomer, unassigned) [Compound 93A, 3-[3-(23,29-difluoro-6,11,11-trimethyl-13-oxo-14,25-dioxa-3,12,20,31-tetrazapentacyclo[24.3.1.12,5.016,24.017,21]hentriaconta-1(30),2,4,16,18,21,23,26,28-nonaen-6-yl)phenyl]propanoic acid]	B (a value between 3 and 6 is marked “B”)	A (an ΔTagg value less than or equal to 5 °C is marked “A”)
CC1(C)CCCCC(C)(c2cccc(CCC(=O)O)c2)c2cnc([nH]2)-c2cc(ccc2F)Oc2c(F)cc3[nH]ccc3c2COC(=O)N1 (single isomer, unassigned) [Compound 93B, 3-[3-(23,29-difluoro-6,11,11-trimethyl-13-oxo-14,25-dioxa-3,12,20,31-tetrazapentacyclo[24.3.1.12,5.016,24.017,21]hentriaconta-1(30),2,4,16,18,21,23,26,28-nonaen-6-yl)phenyl]propanoic acid]	A (a TECC value less than 3 is marked “A”)	C (a value greater than 10 °C and less than or equal to 25 °C is marked “C”)
CC1(C)CCCC(c2cccc(CCC(=O)O)c2)n2ccc(n2)-c2cc(ccc2F)Oc2c(F)cc3[nH]ccc3c2CCOC(=O)N1 (single isomer, unassigned) [Compound 95A, 3-[3-(23,29-difluoro-10,10-dimethyl-12-oxo-13,25-dioxa-5,11,20,31-tetrazapentacyclo-[24.3.1.12,5.016,24.017,21]hentriaconta-1(30),2(31),3,16(24),17(21),18,22,26,28-nonaen-6-yl)phenyl]propanoic acid]	B (a value between 3 and 6 is marked “B”)	B (a value above 5 °C and less than or equal to 10 °C is marked “B”)
